Earlier results on one compound are cited in patent US20090098217A1, “COMPOSITIONS AND METHODS FOR PROMOTING THICKER HAIR” (priority 2007, published 2009).

The test system of series [1] is 5-alpha-reductase. The conditions noted are these: in vitro.
Series [2] deals with 5-alpha-reductase. The conditions noted are these: 5 or 10 mg of zinc injected in rat prostate.

Like-named read-outs stand apart in the source and are kept apart here.

As to `[Zn]` [zinc], the “conversion of testosterone to DHT” value in the series with 5-alpha-reductase [1] (low concentrations of zinc) is “enhance conversion of testosterone to DHT”; in the series on 5-alpha-reductase [1] (mM concentrations of zinc), “inhibited it”. For the same compound, in the series on 5-alpha-reductase [2], the 5-alpha-reductase activity entry is reported as “significantly reduced 5-alpha-reductase activity”.
